Reference: US20250042857A1, “SOS1 Inhibitor With Pyrido-Fused Six-Membered Ring Structure” (HAIHE BIOPHARMA CO., LTD., priority 2021, published 2025)

How the values were obtained:
[1] = target: KRAS-G12C/SOS1 (Homo sapiens (Human), UniProt Q07889); test: Detection of inhibitory effects of compounds on KRAS-G12C/SOS1 (KRASG12C/SOS binding kit, HTRF); conditions: Em665/620, read-out: IC50, inhibitory activity on interaction of KRAS-G12C/SOS1
How it was run: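 HTRF binding of Tag2-KRAS-G12C to Tag1-SOS1 with compounds (10-point 3-fold dilution from 5,000 nM) for 15 min at room temperature, then anti-Tag1-Tb and anti-Tag2-XL665 for 120 min at 4° C. Em665/620 read; inhibition normalised to control wells, IC50 from variable-slope log(inhibitor) fit.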

[2] = test system: p-ERK of PC-9 cells; test: p-ERK HTRF assay in PC-9 cells; assay type: cell-based; conditions: Homo sapiens, PC-9, 1 h, PC-9 lung cancer cells, 1 hour treatment, read-out: IC50, inhibitory activity on p-ERK of PC-9 cells
How it was run: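 PC-9 lung cancer cells plated overnight, then exposed 1 h at 37 °C to a 10-point compound series (10,000–[…] nM final, 0.1% DMSO). After 1 h lysis, phospho-ERK1/2 (Thr202/Tyr204) measured by HTRF at 665/615 nm. Percent inhibition calculated from max and min signals.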

Chain of KRAS-G12C/SOS1 (Q07889 whole entry, stated change not applied): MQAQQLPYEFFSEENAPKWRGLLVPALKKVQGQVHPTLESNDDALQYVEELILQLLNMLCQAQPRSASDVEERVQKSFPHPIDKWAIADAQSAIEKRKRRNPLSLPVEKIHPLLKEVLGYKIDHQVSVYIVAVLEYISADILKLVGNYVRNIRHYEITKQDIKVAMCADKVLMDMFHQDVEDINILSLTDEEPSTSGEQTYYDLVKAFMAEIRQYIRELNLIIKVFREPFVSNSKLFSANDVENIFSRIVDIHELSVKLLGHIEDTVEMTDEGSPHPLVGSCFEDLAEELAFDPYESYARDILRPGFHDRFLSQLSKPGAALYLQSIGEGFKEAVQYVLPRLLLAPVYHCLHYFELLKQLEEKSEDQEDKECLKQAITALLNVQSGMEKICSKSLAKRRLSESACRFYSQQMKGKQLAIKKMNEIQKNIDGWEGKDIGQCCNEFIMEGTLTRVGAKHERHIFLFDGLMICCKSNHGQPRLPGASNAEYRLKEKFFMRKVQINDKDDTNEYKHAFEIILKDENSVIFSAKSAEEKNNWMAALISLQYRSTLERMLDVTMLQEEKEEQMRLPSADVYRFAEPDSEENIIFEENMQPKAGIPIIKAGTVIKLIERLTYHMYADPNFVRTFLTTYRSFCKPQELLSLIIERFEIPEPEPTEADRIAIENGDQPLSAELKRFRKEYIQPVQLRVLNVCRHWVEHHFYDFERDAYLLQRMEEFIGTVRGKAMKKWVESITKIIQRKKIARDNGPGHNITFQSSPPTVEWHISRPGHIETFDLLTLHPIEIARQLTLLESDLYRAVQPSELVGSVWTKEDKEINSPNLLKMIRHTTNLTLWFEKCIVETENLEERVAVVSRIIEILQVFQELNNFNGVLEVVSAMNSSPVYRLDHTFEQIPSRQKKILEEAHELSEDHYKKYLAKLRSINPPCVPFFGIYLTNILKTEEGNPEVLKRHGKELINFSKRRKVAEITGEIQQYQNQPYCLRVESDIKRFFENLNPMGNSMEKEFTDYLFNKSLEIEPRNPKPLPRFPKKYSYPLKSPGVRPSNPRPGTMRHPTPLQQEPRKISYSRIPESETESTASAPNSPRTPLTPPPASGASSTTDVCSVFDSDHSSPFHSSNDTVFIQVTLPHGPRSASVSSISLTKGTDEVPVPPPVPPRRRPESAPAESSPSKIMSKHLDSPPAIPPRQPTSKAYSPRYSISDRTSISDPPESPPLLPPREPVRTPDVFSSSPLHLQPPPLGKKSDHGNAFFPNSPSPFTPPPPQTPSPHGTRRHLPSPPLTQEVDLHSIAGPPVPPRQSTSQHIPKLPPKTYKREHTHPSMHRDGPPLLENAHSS

IC50 [1] | IC50 [2] | Structure (SMILES)
≤ 100 nM | 300 to 1000 nM | C[C@@H](Nc1ccnc2cnc(C3(O)CCN(C(=O)c4ccccn4)CC3)cc12)c1cccc(C(F)F)c1F [Compound B-129]
≤ 100 nM | 300 to 1000 nM | C[C@@H](Nc1ccnc2cnc(C3(O)CCN(C(=O)c4cccnc4)CC3)cc12)c1cccc(C(F)F)c1F [Compound B-130]
≤ 100 nM | ≤ 300 nM | C[C@@H](Nc1ccnc2cnc(C3(O)CCN(C(=O)c4ccncc4)CC3)cc12)c1cccc(C(F)F)c1F [Compound B-131]
≤ 100 nM | ≤ 300 nM | C[C@@H](Nc1ccnc2cnc(C3(O)CCN(C(=O)C4COC4)CC3)cc12)c1cccc(C(F)F)c1F [Compound B-132]
≤ 100 nM | ≤ 300 nM | C[C@@H](Nc1ccnc2cnc(C3(O)CCN(C(=O)[C@@H]4CCOC4)CC3)cc12)c1cccc(C(F)F)c1F [Compound B-133]
≤ 100 nM | ≤ 300 nM | C[C@@H](Nc1ccnc2cnc(C3(O)CCN(C(=O)[C@H]4CCOC4)CC3)cc12)c1cccc(C(F)F)c1F [Compound B-134]
≤ 100 nM | 300 to 1000 nM | C[C@@H](Nc1ccnc2cnc(C3(O)CCN(C(=O)C4CCOCC4)CC3)cc12)c1cccc(C(F)F)c1F [Compound B-135]
≤ 100 nM | > 1000 nM | C[C@@H](Nc1ccnc2cnc(C3(O)CCN(C(=O)[C@H]4CNCCO4)CC3)cc12)c1cccc(C(F)F)c1F [Compound B-136]
≤ 100 nM | > 1000 nM | C[C@@H](Nc1ccnc2cnc(C3(O)CCN(C(=O)[C@@H]4CNCCO4)CC3)cc12)c1cccc(C(F)F)c1F [Compound B-137]
≤ 100 nM | ≤ 300 nM | C[C@@H](Nc1ccnc2cnc(C3(O)CCN(C(=O)Cc4cccnc4)CC3)cc12)c1cccc(C(F)F)c1F [Compound B-138]
≤ 100 nM | ≤ 300 nM | C[C@@H](Nc1ccnc2cnc(C3(O)CCN(C(=O)Cc4ccncc4)CC3)cc12)c1cccc(C(F)F)c1F [Compound B-139]
≤ 100 nM | ≤ 300 nM | C[C@@H](Nc1ccnc2cnc(C3(O)CCN(C(=O)C[C@@H]4CCOC4)CC3)cc12)c1cccc(C(F)F)c1F [Compound B-140]
≤ 100 nM | ≤ 300 nM | C[C@@H](Nc1ccnc2cnc(C3(O)CCN(C(=O)COC(F)F)CC3)cc12)c1cccc(C(F)F)c1F [Compound B-141]
≤ 100 nM | > 1000 nM | C[C@@H](Nc1ccnc2cnc(C3(O)CCN(C(=O)[C@H]4C[C@H](O)CN4)CC3)cc12)c1cccc(C(F)F)c1F [Compound B-144]
≤ 100 nM | > 1000 nM | C[C@@H](Nc1ccnc2cnc(C3(O)CCN(C(=O)[C@H]4C[C@@H](O)CN4)CC3)cc12)c1cccc(C(F)F)c1F [Compound B-145]
≤ 100 nM | > 1000 nM | C[C@@H](Nc1ccnc2cnc(C3(O)CCN(C(=O)[C@H]4C[C@@H](O)CN4C)CC3)cc12)c1cccc(C(F)F)c1F [Compound B-147]
≤ 100 nM | ≤ 300 nM | C[C@@H](Nc1ccnc2cnc(C3(O)CCN(C(=O)CN4CCOCC4)CC3)cc12)c1cccc(C(F)F)c1F [Compound B-148]
≤ 100 nM | > 1000 nM | C[C@@H](Nc1ccnc2cnc(C3(O)CCN(C(=O)CN4CCC(O)CC4)CC3)cc12)c1cccc(C(F)F)c1F [Compound B-149]
≤ 100 nM | > 1000 nM | C[C@@H](Nc1ccnc2cnc(C3(O)CCN(C(=O)CN4CC[C@@H](O)C4)CC3)cc12)c1cccc(C(F)F)c1F [Compound B-150]
≤ 100 nM | > 1000 nM | C[C@@H](Nc1ccnc2cnc(C3(O)CCN(C(=O)CN4CC[C@H](O)C4)CC3)cc12)c1cccc(C(F)F)c1F [Compound B-151]
≤ 100 nM | 300 to 1000 nM | Cc1nnc(N2CCC(O)(c3cc4c(N[C@H](C)c5cccc(C(F)F)c5F)ccnc4cn3)CC2)o1 [Compound B-153]
≤ 100 nM | ≤ 300 nM | C[C@@H](Nc1ccnc2cnc(C3(O)CCN(c4ncc(C#N)cn4)CC3)cc12)c1cccc(C(F)F)c1F [Compound B-156]
≤ 100 nM | ≤ 300 nM | C[C@@H](Nc1ccnc2cnc(C3(O)CCN(C(=O)N(C)C)CC3)cc12)c1cccc(C(F)F)c1F [Compound B-160]
≤ 100 nM | 300 to 1000 nM | C[C@@H](Nc1ccnc2cnc(C3(O)CCN(C(=O)N4CC[C@H](O)C4)CC3)cc12)c1cccc(C(F)F)c1F [Compound B-161]
≤ 100 nM | 300 to 1000 nM | C[C@@H](Nc1ccnc2cnc(C3(O)CCN(C(=O)N4CC[C@@H](O)C4)CC3)cc12)c1cccc(C(F)F)c1F [Compound B-162]
≤ 100 nM | ≤ 300 nM | C[C@@H](Nc1ccnc2cnc(C3(O)CCN(C(=O)NCCO)CC3)cc12)c1cccc(C(F)F)c1F [Compound B-163]
≤ 100 nM | ≤ 300 nM | C[C@@H](Nc1ccnc2cnc(C3(O)CCN(C(=O)N(C)CCO)CC3)cc12)c1cccc(C(F)F)c1F [Compound B-164]
≤ 100 nM | > 1000 nM | C[C@@H](Nc1ccnc2cnc(C3(O)CCN(C(=O)CO)CC3)cc12)c1cccc(C#N)c1F [Compound B-167]

The next lines start with the compound.

Structure (SMILES) | IC50 [1] | IC50 [2]
C[C@@H](Nc1ccnc2cnc(C3(O)CCOCC3)cc12)c1cccc(C(F)F)c1F [Compound B-103] | ≤ 100 nM | 300 to 1000 nM
COC1(c2cc3c(N[C@H](C)c4cccc(C(F)F)c4F)ccnc3cn2)CCOCC1 [Compound B-104] | ≤ 100 nM | 300 to 1000 nM
C[C@@H](Nc1ccnc2cnc(-c3ccc(=O)n(C)c3)cc12)c1cccc(C(F)F)c1F [Compound B-107] | ≤ 100 nM | ≤ 300 nM
C[C@@H](Nc1ccnc2cnc(-c3ccn(C)c(=O)c3)cc12)c1cccc(C(F)F)c1F [Compound B-108] | ≤ 100 nM | ≤ 300 nM
CC(=O)N1CC=C(c2cc3c(N[C@H](C)c4cccc(C(F)F)c4F)ccnc3cn2)C1 [Compound B-109] | ≤ 100 nM | ≤ 300 nM
CC(=O)N1CCC(c2cc3c(N[C@H](C)c4cccc(C(F)F)c4F)ccnc3cn2)C1 (stereo partly drawn) [Compound B-110] | ≤ 100 nM | ≤ 300 nM
CC(=O)N1CCN(c2cc3c(N[C@H](C)c4cccc(C(F)F)c4F)c(F)cnc3cn2)CC1 [Compound B-111] | ≤ 100 nM | ≤ 300 nM
CC(=O)N1CCC(O)(c2cc3c(N[C@H](C)c4cccc(C(F)(F)F)c4F)ccnc3cn2)CC1 [Compound B-112] | ≤ 100 nM | ≤ 300 nM
C[C@@H](Nc1ccnc2cnc(C3(O)CCN(C(=O)CO)CC3)cc12)c1cccc(C(F)F)c1F [Compound B-113] | ≤ 100 nM | ≤ 300 nM
COCC(=O)N1CCC(O)(c2cc3c(N[C@H](C)c4cccc(C(F)F)c4F)ccnc3cn2)CC1 [Compound B-114] | ≤ 100 nM | ≤ 300 nM
C[C@@H](Nc1ccnc2cnc(C3(O)CCN(C(=O)CC#N)CC3)cc12)c1cccc(C(F)F)c1F [Compound B-116] | ≤ 100 nM | ≤ 300 nM
C[C@@H](Nc1ccnc2cnc(C3(O)CCN(CCO)CC3)cc12)c1cccc(C(F)F)c1F [Compound B-117] | ≤ 100 nM | 300 to 1000 nM
C[C@@H](Nc1ccnc2cnc(C3(O)CCN(C(=O)CO)CC3)cc12)c1cccc(C(F)(F)F)c1F [Compound B-118] | ≤ 100 nM | ≤ 300 nM
C[C@H](O)C(=O)N1CCC(O)(c2cc3c(N[C@H](C)c4cccc(C(F)F)c4F)ccnc3cn2)CC1 [Compound B-119] | ≤ 100 nM | ≤ 300 nM
C[C@@H](Nc1ccnc2cnc(C3(O)CCN(C(=O)C(C)(C)O)CC3)cc12)c1cccc(C(F)F)c1F [Compound B-121] | ≤ 100 nM | ≤ 300 nM
CNCC(=O)N1CCC(O)(c2cc3c(N[C@H](C)c4cccc(C(F)F)c4F)ccnc3cn2)CC1 [Compound B-122] | ≤ 100 nM | > 1000 nM
C[C@@H](Nc1c(F)cnc2cnc(C3(O)CCN(C(=O)CO)CC3)cc12)c1cccc(C(F)F)c1F [Compound B-123] | ≤ 100 nM | ≤ 300 nM
C[C@H](O)C(=O)N1CCC(O)(c2cc3c(N[C@H](C)c4cccc(C(F)F)c4F)c(F)cnc3cn2)CC1 [Compound B-124] | ≤ 100 nM | ≤ 300 nM
C[C@H](O)C(=O)N1CCC(O)(c2cc3c(N[C@H](C)c4cccc(C(C)(F)F)c4F)ccnc3cn2)CC1 [Compound B-125] | ≤ 100 nM | ≤ 300 nM
C[C@H](O)C(=O)N1CCC(O)(c2cc3c(N[C@H](C)c4cccc(C(F)(F)F)c4F)ccnc3cn2)CC1 [Compound B-126] | ≤ 100 nM | ≤ 300 nM
C[C@@H](Nc1ccnc2cnc(C3(O)CCN(C(=O)C4(C#N)CC4)CC3)cc12)c1cccc(C(F)F)c1F [Compound B-127] | ≤ 100 nM | ≤ 300 nM
C[C@@H](Nc1ccnc2cnc(C3(O)CCN(C(=O)C4CC4)CC3)cc12)c1cccc(C(F)F)c1F [Compound B-128] | ≤ 100 nM | ≤ 300 nM
C[C@@H](Nc1ccnc2cnc(C3(O)CCN(C4COCC4O)CC3)cc12)c1cccc(C(F)F)c1F (stereo partly drawn) [Compound B-152] | ≤ 100 nM | 300 to 1000 nM
C[C@@H](Nc1ccnc2cnc(C3(O)CCN(Cc4ccccn4)CC3)cc12)c1cccc(C(F)F)c1F [Compound B-159] | ≤ 100 nM | 300 to 1000 nM
CC(=O)N1C2CCC1CN(c1cc3c(N[C@H](C)c4cccc(C#N)c4F)ccnc3cn1)C2 [Compound B-165] | ≤ 100 nM | 300 to 1000 nM
C[C@@H](Nc1ccnc2cnc(C3(O)CCN(CCO)CC3)cc12)c1cccc(C#N)c1F [Compound B-168] | 100 to 500 nM | > 1000 nM
